Here are results for five molecules from publication PMC7165421 (Proceedings of the National Academy of Sciences of the …, 2020).

The test system of data set [1] is AR binding from chromatin. The note with it: ChIP assays; cited from earlier work.
In data set [2] the test system is ARE/Scr dsDNA. The data set can be described thus: DNA binding by fluorescence polarization, ARE/Scr dsDNA. The note with it: ΔNTD AR expressed and purified in presence of enzalutamide (20 μM) vs DHT. Background: In fluorescence polarisation assays a small probe gives low polarisation when free and higher when bound to something large.
Data set [3] concerns ΔNTD AR. Briefly: Peptide binding by fluorescence polarization. Further details: species or system mouse.
For data set [4], the target named is AR LBD. The note with it: cited from earlier work.
The subject of data set [5] is ARE dsDNA. Briefly: DNA binding by fluorescence polarization, minimal ARE dsDNA. The note with it: ΔNTD AR, specificity control.
Data set [6] has as its system ARE containing double-stranded DNA (dsDNA) templates. Briefly: DNA binding by fluorescence polarization, all ARE dsDNAs tested. The note with it: FL AR relative to ΔNTD AR, DHT-bound.

Take `CNC(=O)c1ccc(N2C(=S)N(c3ccc(C#N)c(C(F)(F)F)c3)C(=O)C2(C)C)cc1F` [ENZ, enzalutamide]: the “displacement of AR from chromatin” value in data set [1] is recorded as “displaces AR binding from chromatin in cells”. Moreover, the “reduction of AR DNA binding relative to DHT” value in data set [2] is “twofold”.

Regarding KTYRGAFQNLFQSVREA [AF1], the “binding to ΔNTD AR with full-length ERG present” value in data set [3] (equimolar full-length ERG, fluorescein-labeled AF1 peptide) is “further decrease in AF1 binding”. The “affinity for ΔNTD AR compared to ERG AIM peptide” value in data set [3] (presence and absence of DNA, fluorescein-labeled AF1 peptide) is on record as “more than an order of magnitude reduced affinity”. Moreover, the “affinity of AF1 for AR LBD” value in data set [4] is “micromolar”.

QIQLWHFILELLRKEEY [ERF AIM]: the “affinity compared to the ERG AIM” value in data set [3] (ΔNTD AR) was “slightly less than the ERG AIM”.

“bovine serum albumin (BSA): specificity control”: the “stimulation of AR DNA binding” value in data set [5] is listed as “failed to stimulate AR”.

B1: FL AR: recombinant AR with the N terminus intact (protein)
chain: MEVQLGLGRVYPRPPSKTYRGAFQNLFQSVREAIQNPGPRHPEAANIAPPGACLQQRQETSPRRRRRQQHTEDGSPQAHIRGPTGYLALEEEQQPSQQQAASEGHPESSCLPEPGAATAPGKGLPQQPPAPPDQDDSAAPSTLSLLGPTFPGLSSCSADIKDILNEAGTMQLLQQQQQQQQHQQQHQQHQQQQEVISEGSSARAREATGAPSSSKDSYLGGNSTISDSAKELCKAVSVSMGLGVEALEHLSPGEQLRGDCMYASLLGGPPAVRPTPCAPLPECKGLPLDEGPGKSTEETAEYSSFKGGYAKGLEGESLGCSGSSEAGSSGTLEIPSSLSLYKSGALDEAAAYQNRDYYNFPLALSGPPHPPPPTHPHARIKLENPLDYGSAWAAAAAQCRYGDLGSLHGGSVAGPSTGSPPATTSSSWHTLFTAEEGQLYGPGGGGGSSSPSDAGPVAPYGYTRPPQGLTSQESDYSASEVWYPGGVVNRVPYPSPNCVKSEMGPWMENYSGPYGDMRLDSTRDHVLPIDYYFPPQKTCLICGDEASGCHYGALTCGSCKVFFKRAAEGKQKYLCASRNDCTIDKFRRKNCPSCRLRKCYEAGMTLGARKLKKLGNLKLQEEGENSNAGSPTEDPSQKMTVSHIEGYECQPIFLNVLEAIEPGVVCAGHDNNQPDSFAALLSSLNELGERQLVHVVKWAKALPGFRNLHVDDQMAVIQYSWMGLMVFAMGWRSFTNVNSRMLYFAPDLVFNEYRMHKSRMYSQCVRMRHLSQEFGWLQITPQEFLCMKALLLFSIIPVDGLKNQKFFDELRMNYIKELDRIIACKRKNPTSCSRRFYQLTKLLDSVQPIARELHQFTFDLLIKSHMVSVDFPEMMAEIISVQVPKILSGKVKPIYFHTQ
For B1, in data set [6], the “impairment of DNA binding by presence of NTD” value is “greater than 10 fold”.
